Assay results as given in patent US7223733B2, “Modulation of TRIP-Br function and method of treating proliferative disorders” (National University of Singapore, priority 2004, dated 2007).
Where no end group is shown, it is not given here.

Tests used:
Type in all cases: cell-based, human
[1] = system: caspase-3 protease activity; test: Caspase assay with Ac-DEVD-AFC in U2OS cells; conditions: 50 μM decoy peptides, 48 or 72 h
Experimental: Caspase assay. Both adherent and detached cells in 6-well dishes were harvested by centrifugation at 2000 rpm for 15 min at 4° C. The resulting cell pellets were incubated in 50 μl of chilled lysis buffer (Clontech) on ice for 10 min. Cell lysates were incubated in a reaction mix containing 10 mM HEPES, 2.0 mM EDTA, 10 mM KCl, 1.5 mM MgCl2, 1.0 mM PMSF, aprotinine, pepstatin A and leupeptine (20 μM each), 6.0 mM DTT and Ac-DEVD-AFC (4.0 μg/ml). Reactions were allowed to proceed at room temperature. Fluorescence readings were taken at 15 min intervals for 1 h using a spectrofluorometer (excitation wavelength: 400 nm; emission wavelength: 505 nm).
FIG. 6: Caspase assay. (A) Caspase 3 protease activity in U2OS cells exposed to either Eto (Etoposide) for 24 h or 50 μM decoy peptides for 48 or 72 h, were assayed using the Ac-DEVD-AFC fluorogenic substrate. […] Values represent the average +/− standard deviation of two independent experiments. Control: cells cultured in normal growth medium; Vehicle: cells cultured in the presence of 0.5% DMSO; (B) Western blot analysis of PARP cleavage. U2OS cells were exposed to either Eto (Etoposide) for 24 h or 50 μM decoy peptides for 72 h. Lane 1: Vehicle cells (cultured in the presence of 0.5% DMSO for 24 h); Lane 2: 25 μM Eto; Lane 3: 250 μM Eto; Lane 4: Vehicle (cells cultured in the presence of 0.5% DMSO for 72 h); Lane 5: *SCR; Lane 6: *Br1; Lane 7: *Br2.

E2F-regulated genes = test: Semi-quantitative RT-PCR of E2F-regulated genes in U2OS cells; conditions: 50 μM, 16 h
Experimental: Semi-quantitative RT-PCR. Total RNA was isolated from U2OS cells or U2OS-ER-E2F-1 cells (grown with or without 1.0 μM OHT and/or 10 μg/ml cycloheximide) using the TRIZOL® Reagent (Life Technologies). Total RNA (4 μg) was reverse transcribed using oligo-dT and M-MLV reverse transcriptase in a total reaction volume of 20 μl. Polymerase Chain Reactions (PCR) were carried out on 3 μl cDNA samples in the presence of […] deoxyribonucleotide triphosphates (dNTPs) and 40 μM of specific primer pairs in a total reaction volume of 50 μ. The cycling profile for PCR was as follow: 30 cycles of denaturation (94° C., 30 sec), annealing (51° C., 30 sec) and extension (72° C., 2 min), with a 2-minute initial denaturation step at 94° C. and a 10-minute terminal polishing step at 72° C. Sequences of gene-specific primers are available upon request. PCR amplification products were analyzed by agarose gel electrophoresis.
FIG. 3: Analysis of E2F-responsive transcription in U2OS cells in response to decoy peptide treatment. (A) β-galactosidase/Luciferase assay of U2OS cells co-transfected with 0.1 μg of pCMV/β-galactosidase and 7.5 μg of the indicated luciferase reporter plasmids. Promoter activity of vehicle-treated samples was normalized to 100% and the activities of the peptide-treated samples were expressed relative to the vehicle-treated control. Values represent the average +/− standard deviation of at least two independent experiments; (B) Semi-quantitative RT-PCR analysis on total RNA for dhfr, cyclin-E, cyclin A2, PCNA, DNA Pola and cdc2 expression in U2OS cells exposed for 16 h to either vehicle (0.5% DMSO) or 50 μM of the indicated decoy peptides. H-actin was included as an internal control.

cyclins and Cdks = test: Cell cycle protein expression profile of U2OS cells released from nocodazole arrest (Western blot); conditions: U2OS released from nocodazole block; for timing of cyclin E protein accumulation: 20 μM; for absolute levels of cyclin E protein: up to 24 h post-release
Experimental: Cell synchronization and cell cycle progression analyses. U2OS cells in 6-well dishes were subjected to nocodazole treatment (75 ng/ml) for 22 h. Thereafter, the nocodazole-arrested cultures were released by washing with 1×PBS and grown in DMEM plus 10% FBS containing either vehicle (0.5% DMSO) or 20 μM decoy peptides. Cells were harvested at 4-h intervals for standard Western blot analyses. For the analysis of Geminin protein profile, mock- or cyclin E/Cdk2-transfected U2OS cells were exposed to nocodazole (75 ng/ml) at 3 h post-transfection for 22 h. Denaturing SDS-PAGE and western blotting. Proteins from whole cell lysate and IP complexes were separated using standard denaturing polyacrylamide gel electrophoresis as described previously (Hsu, S. I. H., et al. EMBO J 20, 2273-2285 (2001)). FIG. 7: Cell cycle protein expression profile and protein decay analysis. (A) Protein expression profile of U2OS cells released from nocodazole arrest in the absence or presence of decoy peptide treatment. Protein expression of various cyclins and Cdks was assessed by Western blotting using whole cell lysates from synchronized U2OS cells at 4, 8, 12, 16, 20 and 24 h after release. Coomassie-stained proteins served as loading controls; (B) U2OS cells transfected with vector backbone (vehicle) or pRc/cyclin E and pCMV/Cdk2 (1 μg each), were arrested at the G2/M boundary by exposure to nocodazole (75 ng/ml) and then released to re-enter the cell cycle. Protein expression of cyclin E and Geminin was assessed using whole cell lysates from synchronized U2OS cells at 0, 4, 8, 12, 16 and 20 h after release; (C) Protein decay analysis of Geminin expression in the absence or presence of cyclin E/Cdk2 over-expression (left panel) or in the absence or presence of decoy peptide treatment (right panel) by Western blotting (WB). Coomassie stained proteins served as the loading control (C).

U2OS cells = test: BrdU incorporation colorimetric ELISA in U2OS cells; conditions: for DNA synthesis activity (BrdU incorporation): U2OS, 50 μM, between 24 h and 48 h post-treatment; for ability to incorporate BrdU with increasing concentrations: U2OS, 5, 10, 20 or 50 μM, 48 h
Experimental: BrdU assay. U2OS cells grown in 96-well plates were exposed to either vehicle or decoy peptides. Bromodeoxyuridine (BrdU) incorporation was monitored with a colorimetric ELISA assay using a cell proliferation kit according to manufacturer's recommendations (Boehringer Mannheim).
FIG. 4: Time-dependent and dose-dependent anti-proliferative effects of the decoy peptides. (A) Time-dependent anti-proliferative effects of the decoy peptides. U2OS cells, exposed to either vehicle (0.5% DMSO) or 50 μM decoy peptides for either 24 or 48 h, were assayed for BrdU incorporation with a colorimetric ELISA assay. Values represent the average +/− standard deviation of two independent experiments; (B) Dose-dependent anti-proliferative effects of the decoy peptides. U2OS cells, exposed to 5, 10, 20 or 50 μM of *SCR (solid line and square), *Br1 (dashed line and triangle) or *Br2 (dashed line and circle) for 48 h, were assayed for BrdU incorporation with a colorimetric ELISA assay. Values represent the average +/− standard deviation of at least two independent experiments; (C) Cell proliferation analysis. Left panel: At 0, 48 and 72 h post decoy peptide treatment, total cell number was determined electronically using a Coulter® counter. Right panel: At 72 h post-treatment, cells were harvested and stained with trypan blue for viable cell count analysis.

Row | Sequence | caspase-3 protease activity in cell lysates [1] | DNA Polα mRNA expression level (E2F-regulated genes) | cdc2 mRNA transcript level (E2F-regulated genes) | dhfr mRNA expression level (E2F-regulated genes) | transcriptional activity of PCNA gene (E2F-regulated genes) | transcriptional activity of cyclin A2 gene (E2F-regulated genes) | transcriptional activity of cyclin-E gene (E2F-regulated genes) | timing of cyclin E protein accumulation (cyclins and Cdks) | absolute levels of cyclin E protein (cyclins and Cdks) | DNA synthesis activity (BrdU incorporation) (U2OS cells) | ability to incorporate BrdU with increasing concentrations (U2OS cells) | expression profile of the genes under investigation relative to vehicle (E2F-regulated genes; six E2F-regulated genes)
1 | ERQIKIWFQNRRMKWKKTGFLTDLTLDDILFADID (ERQIKIWFQNRRMKWKKTGFLTDLTLDDILFADID-NH2) [*Br2] | indistinguishable from the baseline activity | down-regulated | significant down regulation | down-regulated | unaffected | unaffected | unaffected | premature accumulation of cyclin E beginning in early G1 | dramatically up-regulated and sustained at high levels | substantially reduced DNA synthesis activity | progressively reduced ability to incorporate BrdU | 
2 | ERQIKIWFQNRRMKWKKATGCLLDDGLEGLFEDID (ERQIKIWFQNRRMKWKKATGCLLDDGLEGLFEDID-NH2) [*Br1] | indistinguishable from the baseline activity |  | significant down regulation |  | unaffected | unaffected | unaffected | premature accumulation of cyclin E beginning in early G1 | dramatically up-regulated and sustained at high levels | substantially reduced DNA synthesis activity | progressively reduced ability to incorporate BrdU | 
3 | ERQIKIWFQNRRMKWKKGLDEDGLLLFCEGDTIAD (Peptide containing penetratin sequence from Drosophila and random peptide sequence) [*SCR, reference compound] | indistinguishable from the baseline activity |  |  |  |  |  |  | accumulated during mid-to-late G1 between 8 h and 16 h post-release |  | basal DNA synthesis rate similar to that of the vehicle-treated control cells |  | negligible effects
